Laboratory results: patent US11242327B2, “Analgesic compounds” (RECURIUM IP HOLDINGS, LLC, priority 2017, dated 2022)
Structures can show the parent of a compound that is named as a salt.

What was measured:
male Sprague-Dawley rats [1] = assay: UVB Inflammatory Pain Test (thermal hyperalgesia); format: in vivo; conditions: rat, oral, 300 mg/kg
Procedure: UVB irradiation to the surface of the hind paw was used to induce cutaneous inflammatory pain in non-fasted male Sprague-Dawley rats weighing 175-300 g. On Day −3, animals were restrained and the plantar surface of the left hind paw was exposed to 350 mJoules/cm^2 of UVB irradiation using a narrow band UVB light source (Daavlin®, Bryan, Ohio). Following UVB irradiation, animals were returned to their home cage. Thermal hyperalgesia was assessed prior to dosing and approximately 1, 2, and 4 hours after dosing on Day 0 using a radiant heat plantar test apparatus (IITC Life Sciences©; Woodland Hills, Calif.). Animals were placed in individual acrylic chambers on a glass platform warmed to 30±2° C. and allowed to acclimate to their surroundings for a minimum of 15 minutes before testing. The stimulus was presented to the plantar surface and the timer was activated. The stimulus intensity was set such that pre-injury paw withdrawal latencies were approximately 12-18 seconds. Paw withdrawal latency values were recorded at the first observed nocifensive behavior (paw withdrawal, flinching, biting and/or licking). Three paw withdrawal latencies were measured for each hind paw per time point. The mean of the 3 values was taken as the paw withdrawal latency for that time point. A maximum cutoff latency of 30 seconds was used to prevent injury to the animal. The mean and standard error of the mean (SEM) were determined for each paw for each treatment group at each time point. Test compounds were administered orally at concentrations of 3, 10, 30 or 100 mg/kg; celecoxib was administered orally at a concentration of 30 mg/kg; and acetaminophen was administered orally at a concentration of 300 mg/kg. The control group received the vehicle (sterile water). In Table 4, ‘A’ designates >8 seconds of paw withdrawal latency, ‘B’ designates >6 and <8 seconds of paw withdrawal latency, and ‘C’ designates <6 seconds of paw withdrawal latency.
The results provided in Table 4 are for oral administration in rats. […] Furthermore, while acetaminophen was dosed at 300 mg/kg, compounds of Formulae (Ie), (Ih) and (Ik), or a pharmaceutically acceptable salt of any of the foregoing, were dosed at 3 mg/kg, 10 mg/kg and 100 mg/kg.

COX-1 = COX-1 (Homo sapiens, UniProt P23219); assay: NSAIDS and Opioid Receptor Test: COX-1; format: biochemical
Procedure: (§1) Compounds were screened as DMSO solutions at 10 μM, 100 μM, or 200 μM and values represent percent inhibition of control-specific binding. […] As NSAID and opioid mechanisms of action are precluded, a person of ordinary skill in the art understands that undesirable side effects associated with inhibition of COX receptors in NSAIDs and activation of opiate receptors in opioids can be avoided by compounds described herein. Furthermore, opioids are known to lose their analgesic potency after to continued administration. (See Benyamin, et al. “Opioid Complications and Side Effects” Pain Physician 11 (2008): S105-S120). As the data indicates compounds described herein have a different mechanism action compared to opioids, a person of ordinary skill in the art would appreciate that compounds described herein would not be expected to lose their analgesic potency like opioids after continued admininistration.

COX-2 = molecular target: T1, COX-2 (Homo sapiens, UniProt P35354); assay: NSAIDS and Opioid Receptor Test: COX-2; format: biochemical
T1 sequence (P35354 18-604): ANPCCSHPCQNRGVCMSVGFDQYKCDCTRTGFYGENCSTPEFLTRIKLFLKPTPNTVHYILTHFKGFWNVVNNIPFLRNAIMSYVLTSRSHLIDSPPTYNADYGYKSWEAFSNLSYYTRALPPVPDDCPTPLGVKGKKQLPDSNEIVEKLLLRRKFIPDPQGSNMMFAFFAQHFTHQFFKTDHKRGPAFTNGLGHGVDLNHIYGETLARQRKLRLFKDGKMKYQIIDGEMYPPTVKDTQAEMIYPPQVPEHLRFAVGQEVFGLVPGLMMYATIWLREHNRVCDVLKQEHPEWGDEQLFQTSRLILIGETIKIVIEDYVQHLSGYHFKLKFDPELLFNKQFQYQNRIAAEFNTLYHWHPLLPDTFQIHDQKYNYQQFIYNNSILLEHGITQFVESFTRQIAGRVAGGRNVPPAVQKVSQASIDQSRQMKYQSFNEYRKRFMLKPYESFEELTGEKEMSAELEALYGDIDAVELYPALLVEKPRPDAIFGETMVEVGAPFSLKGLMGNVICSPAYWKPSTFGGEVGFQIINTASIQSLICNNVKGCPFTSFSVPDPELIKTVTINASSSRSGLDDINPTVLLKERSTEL
Procedure: as §1

Opiate δ1 = Opiate δ1 (Homo sapiens, UniProt P41143); assay: NSAIDS and Opioid Receptor Test: Opiate δ1; format: binding
Procedure: as §1

Opiate κ = Opiate κ (Homo sapiens, UniProt P41145); assay: NSAIDS and Opioid Receptor Test: Opiate κ; format: binding
Procedure: as §1

Opiate μ = Opiate μ (Homo sapiens, UniProt P35372); assay: NSAIDS and Opioid Receptor Test: Opiate μ; format: binding
Procedure: as §1

adult male C57BL/6 mice = assay: Conditioned Place Preference (Abuse) Test; format: in vivo, mouse
Description: A conditioned place preference (CPP) model was used to assess the reward properties of compounds of formulae (Ie), or a pharmaceutically acceptable salt of any of the foregoing, in adult male C57BL/6 mice. The CPP model apparatus consisted of a Plexiglas© test unit having three (A, B, C) compartments (9 cm×9 cm×16 cm) configured to allow access to all chambers. Compartments A and C had textually distinct flooring and wall marking. Mice were placed in the middle compartment with free access to the other compartments. On day 1 and 2, the “naive chamber preference” was assessed by placing the animal in the middle chamber twice a day (AM and PM) for 30 min on two consecutive days, with the chamber showing the greatest residence time being called the “preferred chamber”. On “drug pairing days” (days 5, 6, 7 and 8) mice were injected IP with vehicle (50 mM citric acid) in the AM in the preferred chamber and the drug/vehicle in the afternoon in the non-preferred chamber for four consecutive days. On the morning of day 9 (the day after the last drug pairing), the “drug chamber preference” was assessed by placing the mouse (absent any injection) in the middle chamber, with free access to all chambers for 30 minutes. This was repeated five days later (day fourteen), with no intervening drug treatment.
The time spent on days 9 and 14 (e.g. […] respectively after the last drug treatment) in the drug associated chamber was the test datum and is represented in FIG. 1. […] In contrast, there was no increase in the non-preferred chamber residence time when the least-preferred chamber was paired with saline, APAP or test compounds 2 or 28 on either days 9 or 14, or days 0 or 5.

male Sprague-Dawley rats [2] = assay: Formalin Paw Test, rat, oral; format: in vivo; conditions: 30 mg/kg
Procedure: (§2) One test compound or the vehicle was administered to each rat or mouse in each test group (8 rats or mice per group). Non-fasted male Sprague-Dawley rats weighing 200-225 g or non-fasted male ICR mice weighing 23±3 g were used. […] Responses were measured every 5 minutes after the formalin injection for 35 minutes. The results in Table 2 are for oral administration in rat and the results in Table 3 are for intraperitoneal administration in mouse. In Tables 2 and 3, 'A' designates <70 seconds of paw licking, 'B' designates >70 and <165 seconds of paw licking, and 'C' designates >165 seconds of paw licking.

Opiate δ2 = Opiate δ2 (Homo sapiens, UniProt P41143); assay: NSAIDS and Opioid Receptor Test: Opiate δ2; format: binding
Procedure: as §1

[3] = Bioavailability Test (rat pharmacokinetics); format: in vivo
Procedure: Oral bioavailability of compounds of Formulae (Ie), (Ih), (Ik), and (Ir), or a pharmaceutically acceptable salt of any of the foregoing, were evaluated in fasted male Sprague-Dawley (SD) rats weighing 200-225g. Compounds were dosed at 3 mg/kg (IV) and 30 mg/kg (PO). Unless otherwise noted, compounds were dissolved in 0.9% saline for IV dosing and 100% sterile water for PO dosing. Pharmacokinetic parameters were determined using Phoenix WinNonlin (v7.0). […]

male ICR mice = assay: Formalin Paw Test, mouse, intraperitoneal; format: in vivo; conditions: 60 mg/kg; for Early Phase, seconds of paw licking: early/acute phase (0-10 minutes); for Late Phase, seconds of paw licking: late/tonic phase (10-35 minutes)
Procedure: as §2

male Sprague-Dawley rats [4] = assay: Post-Incisional (Brennan) Pain Test; format: in vivo; conditions: rat, oral; for cumulative pain score, 4 h: 4 h post-dosing; for cumulative pain score, 24 h: 24 h post-dosing
Procedure: Incisional pain was induced in non-fasted male Sprague-Dawley rats weighing 180-300 g by making a 1-cm plantar incision in the left hind paw and is designed to mimic pain and sensitivity similar to what is reported by patients after surgery. Dosing occurred at the time of incision and spontaneous pain was measured 4 and 24 hours post-dosing using a cumulative pain score. The unrestrained animals were placed on a metal mesh platform and allowed to acclimate for about 15 min/ Each animal was closely observed during a 1-min period repeated every 5 min for 1 h (12 times total). Depending on the position in which the foot was found during the scoring period, a score of 0, 1, or 2 was given. Full weight bearing of the foot (score=0) was present if the skin on the plantar surface of the paw wound was blanched or distorted by the mesh. If the foot was completely off the mesh, or one or more instances of licking or flinching was observed, a score of 2 was recorded and the licking or flinching was noted but not counted. If the plantar surface of the paw touched the mesh without blanching or distorting, a score of 1 was given. The sum of the 12 scores obtained during the 1 h session was calculated (maximum score=24) for each animal. Observations were made during hours 4 and 24. Test articles were administered orally at concentrations of 10, 30 or 100 mg/kg and ketoprofen was administered subcutaneously at a concentration of 10 mg/kg. The control group received the vehicle (sterile water). In Table 6, ‘A’ designates a cumulative pain score of ≤11, ‘B’ designates >11 and ≤16, and ‘C’ designates >16.
The results provided in Table 6 are for oral administration in rats.

[5] = male, Sprague-Dawley, in vivo, IV 3 mg/kg, 0.9% saline
[6] = male, Sprague-Dawley, in vivo, PO 30 mg/kg, sterile water

Sequence of Opiate μ (P35372 whole entry): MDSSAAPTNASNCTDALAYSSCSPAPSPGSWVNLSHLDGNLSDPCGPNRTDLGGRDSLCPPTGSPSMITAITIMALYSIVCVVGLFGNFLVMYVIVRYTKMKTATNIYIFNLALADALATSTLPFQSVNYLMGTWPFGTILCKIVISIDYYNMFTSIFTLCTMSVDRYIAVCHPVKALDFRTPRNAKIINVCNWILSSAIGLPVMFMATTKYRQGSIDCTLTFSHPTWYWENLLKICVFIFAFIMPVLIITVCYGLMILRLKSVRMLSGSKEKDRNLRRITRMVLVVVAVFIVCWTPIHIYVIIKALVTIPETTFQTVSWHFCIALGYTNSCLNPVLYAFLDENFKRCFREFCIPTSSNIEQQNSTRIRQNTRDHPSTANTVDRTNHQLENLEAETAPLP
Sequence of Opiate κ (P41145 whole entry): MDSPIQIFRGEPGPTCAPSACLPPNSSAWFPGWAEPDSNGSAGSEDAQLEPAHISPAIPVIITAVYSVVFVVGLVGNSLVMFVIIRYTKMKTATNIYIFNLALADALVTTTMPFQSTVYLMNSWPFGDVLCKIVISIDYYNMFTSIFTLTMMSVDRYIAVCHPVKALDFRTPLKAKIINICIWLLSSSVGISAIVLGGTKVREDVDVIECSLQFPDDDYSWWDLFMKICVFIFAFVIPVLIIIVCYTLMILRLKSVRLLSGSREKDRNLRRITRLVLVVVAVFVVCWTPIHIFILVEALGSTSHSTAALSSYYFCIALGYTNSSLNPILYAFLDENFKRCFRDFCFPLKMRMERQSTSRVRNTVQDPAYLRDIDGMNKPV
Sequence of Opiate δ2 (P41143 whole entry): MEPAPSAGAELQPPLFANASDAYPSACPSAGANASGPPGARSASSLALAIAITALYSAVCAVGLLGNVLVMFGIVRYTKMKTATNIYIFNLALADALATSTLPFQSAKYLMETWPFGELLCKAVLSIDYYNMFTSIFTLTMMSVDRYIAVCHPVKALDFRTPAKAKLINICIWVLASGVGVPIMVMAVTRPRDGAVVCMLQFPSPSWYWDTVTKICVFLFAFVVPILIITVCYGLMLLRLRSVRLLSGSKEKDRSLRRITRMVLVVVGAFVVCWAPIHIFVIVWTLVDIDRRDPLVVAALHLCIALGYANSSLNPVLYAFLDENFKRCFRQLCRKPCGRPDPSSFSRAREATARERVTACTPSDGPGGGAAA
Sequence of COX-1 (P23219 24-599): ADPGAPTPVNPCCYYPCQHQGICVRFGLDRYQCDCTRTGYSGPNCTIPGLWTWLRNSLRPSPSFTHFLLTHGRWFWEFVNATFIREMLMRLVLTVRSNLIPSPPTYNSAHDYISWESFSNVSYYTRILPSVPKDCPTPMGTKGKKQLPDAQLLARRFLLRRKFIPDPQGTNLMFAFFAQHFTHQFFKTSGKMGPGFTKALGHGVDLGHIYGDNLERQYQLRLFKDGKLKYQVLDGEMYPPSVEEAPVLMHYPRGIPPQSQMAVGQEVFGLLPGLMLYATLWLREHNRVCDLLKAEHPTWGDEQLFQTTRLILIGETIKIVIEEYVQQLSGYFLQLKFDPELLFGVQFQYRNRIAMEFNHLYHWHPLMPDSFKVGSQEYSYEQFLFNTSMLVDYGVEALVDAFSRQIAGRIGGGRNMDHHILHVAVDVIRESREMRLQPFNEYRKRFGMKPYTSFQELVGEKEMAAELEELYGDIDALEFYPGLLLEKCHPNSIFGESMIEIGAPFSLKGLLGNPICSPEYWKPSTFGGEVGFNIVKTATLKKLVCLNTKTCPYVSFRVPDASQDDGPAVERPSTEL
Sequence of Opiate δ1 (P41143 whole entry): as the sequence (P41143 whole entry) above

CC(=O)Nc1ccc(O)cc1 [Acetaminophen, reference compound]
paw withdrawal latency, 1 h (male Sprague-Dawley rats [1]; 1 h after dosing): A (>8 seconds of paw withdrawal latency) | paw withdrawal latency, 2 h (male Sprague-Dawley rats [1]; 2 h after dosing): A (>8 seconds of paw withdrawal latency) | paw withdrawal latency, 4 h (male Sprague-Dawley rats [1]; 4 h after dosing): A (>8 seconds of paw withdrawal latency) | inhibition at 10 µM (COX-1; read-out: % Inhibition, COX-1 (human)): -7% | inhibition at 10 µM (COX-2; read-out: % Inhibition, COX-2 (human)): 3% | inhibition at 10 µM (Opiate δ1): 2% | inhibition at 10 µM (Opiate κ; 10 μM): -1% | inhibition at 10 µM (Opiate μ; 10 μM): -5% | least preferred (drug associated) chamber residence time (adult male C57BL/6 mice; mouse, in vivo, ip): no increase

Cl.NC12CC(c3cccc(C(F)(F)F)n3)(C1)C2 [Compound 13, 3-(6-(Trifluoromethyl)pyridin-2-yl)bicyclo[1.1.1]pentan-1-amine hydrochloride]
Early Phase, seconds of paw licking (male Sprague-Dawley rats [2]; early/acute phase (0-10 minutes)): A (<70 seconds of paw licking) | Late Phase, seconds of paw licking (male Sprague-Dawley rats [2]; late/tonic phase (10-35 minutes)): A (<70 seconds of paw licking) | inhibition at 200 µM (COX-1; 200 μM): 6% | inhibition at 200 µM (COX-2; 200 μM): 8% | inhibition at 200 µM (Opiate δ2; 200 μM): 6% | inhibition at 200 µM (Opiate κ; 200 μM): 33% | inhibition at 200 µM (Opiate μ; 200 μM): 56% | F ([3]; PO 30 mg/kg vs IV 3 mg/kg): 16% | AUC(0-inf) [3, 5]: 3 µM·h | clearance [3, 5]: 73 mL/min/kg | half-life [3, 5]: 9.5 h | Vd ([3]; male, Sprague-Dawley, in vivo, IV 3 mg/kg, 0.9% saline, read-out: Vdss): 20.2 L/kg | AUC(0-inf) [3, 6]: 35 µM·h | Cmax [3, 6]: 11 µM | Tmax [3, 6]: 0.6 h | half-life [3, 6]: 6.8 h

CC(C)[C@H](N)C(=O)NC12CC(C(F)(F)F)(C1)C2 [Compound 23, (S)-2-Amino-3-methyl-N-(3-(trifluoromethyl)bicyclo[1.1.1]pentan-1-yl)butanamide hydrochloride]
Early Phase, seconds of paw licking (male ICR mice): A (<70 seconds of paw licking) | Late Phase, seconds of paw licking (male ICR mice): C (>165 seconds of paw licking)

CCOC(=O)NC12CC(C(F)(F)F)(C1)C2 [Compound 24, Ethyl (3-(trifluoromethyl)bicyclo[1.1.1]pentan-1-yl)carbamate]
Early Phase, seconds of paw licking (male ICR mice): A (<70 seconds of paw licking) | Late Phase, seconds of paw licking (male ICR mice): B (>70 and <165 seconds of paw licking)

NC12CC(C(F)(F)F)(C1)C2 [Compound 28, 3-(trifluoromethyl)bicyclo[1.1.1]pentan-1-amine hydrochloride]
cumulative pain score, 4 h (male Sprague-Dawley rats [4]; 10 mg/kg): C (>16) | cumulative pain score, 24 h (male Sprague-Dawley rats [4]; 10 mg/kg): C (>16) | cumulative pain score, 4 h (male Sprague-Dawley rats [4]; 30 mg/kg): B (>11 and ≤16) | cumulative pain score, 24 h (male Sprague-Dawley rats [4]; 30 mg/kg): B (>11 and ≤16) | cumulative pain score, 4 h (male Sprague-Dawley rats [4]; 100 mg/kg): B (>11 and ≤16) | cumulative pain score, 24 h (male Sprague-Dawley rats [4]; 100 mg/kg): A (a cumulative pain score of ≤11) | inhibition at 100 µM (Opiate δ2; 100 μM): 2% | inhibition at 100 µM (Opiate κ; 100 μM): 1% | inhibition at 100 µM (Opiate μ; 100 μM): 3% | least preferred (drug associated) chamber residence time (adult male C57BL/6 mice; mouse, in vivo, ip): no increase

CN1CC[C@]23c4c5ccc(O)c4O[C@H]2[C@@H](O)C=C[C@H]3[C@H]1C5 [morphine, reference compound]
least preferred (drug associated) chamber residence time (adult male C57BL/6 mice; mice, IP, drug pairing 4 consecutive days, assessed on day 9): significant increase | least preferred (drug associated) chamber residence time (adult male C57BL/6 mice; mice, IP, drug pairing 4 consecutive days, assessed on day 14): significant increase
